# In US5453440A, “Peptide mimics useful as platelet aggregation inhibitors” (G. D. Searle & Co., priority 1993, dated 1995):
# Legend:
# [1] = system: platelet aggregation in dog PRP; test: In-vitro platelet aggregation in PRP (ADP-induced, dog platelet-rich plasma); format: cell-based; settings: Canis lupus familiaris, ADP 50 μm final concentration, 37° C., 1 minute preincubation
# Experimental: Healthy male or female dogs were fasted for 8 hours prior to drawing blood; then 30 ml whole blood was collected using a butterfly needle and 30 cc plastic syringe with 3 ml of 0.129 M buffered sodium citrate (3.8%). The syringe was rotated carefully as blood was drawn to mix the citrate. Platelet-rich plasma (PRP) was prepared by centrifugation at 975×g for 3.17 minutes at room temperature, allowing the centrifuge to coast to a stop without braking. The PRP was removed from the blood with a plastic pipette and placed in a plastic capped, 50 ml Corning conical sterile centrifuge tube which was held at room temperature. Platelet poor plasma (PPP) was prepared by centrifuging the remaining blood at 2000×g for 15 minutes at room temperature allowing the centrifuge to coast to a stop without braking. The PRP was adjusted with PPP to a count of 2-3×10^8 platelets per ml. 400 μl of the PRP preparation and 50 μl of the compound to be tested or saline were preincubated for 1 minute at 37° C. in a BioData aggregometer (BioData, Horsham, Pa.). 50 μl of adenosine 5'-diphosphate (ADP) (50 μm final concentration) was added to the cuvettes and the aggregation was monitored for 1 minute. All compounds are tested in duplicate. Results are calculated as follows:
# Percent of control=[(maximal OD minus initial OD of compound) divided by (maximal OD minus initial OD of control saline)]×100. The % inhibition=100-(percent of control).
# [2] = system: fibrinogen binding to platelets; test: Fibrinogen binding assay (125I-fibrinogen binding to ADP-activated human platelets); settings: ADP 10 μM, 125I-fibrinogen 0.3 μM, 40 min at 37° C.
# Experimental: Fibrinogen binding was performed essentially as described by Plow et al., Blood 70, 110-115 (1987). Briefly, blood from humans who had not been given any antiplatelet drugs in the previous two weeks was collected into 1/10th volume of CCD buffer (100 mM sodium citrates, 136 mM glucose, pH 6.5). The blood was centrifuged for 3 min at 1000×g and platelet rich plasma was transferred to a plastic tube with a plastic pipet and placed on ice. After 15 minutes, 1/2 volume of ice cold CCD buffer was added and the sample was centrifuged at 900×g for 10 min at 2° C. The supernatant was decanted and the platelet pellet was gently resuspended in 1/2 the original volume of ice cold modified Tyrode's buffer (137 mM NaCl, 2.6 mM KCl, 12 mM NaHCO3, 5.5 mM glucose, 15 mM HEPES, 0.5% BSA, pH 7.4). After incubating for 30 minutes at 37° C., the platelet count was adjusted to 4×10^8 platelets/ml with modified Tyrode's buffer. To test samples (final concentration=1×10^8 platelets/ml) were added in sequence: ADP (10 μM), CaCl2 (2 mM), test compound, and ^125 I-fibrinogen (0.3 μM) to the aforesaid final concentrations in a volume of 200 μ1. […] Specific binding was determined in each test by subtracting from the total binding the amount of ^125 I-fibrinogen bound in the presence of a 60-fold excess of unlabeled fibrinogen. […]
SMILES,IC50 [1] [µM],IC50 [2] [µM]
N=C(N)c1ccc(N(Cc2ccccc2)C(=O)CCC(=O)N[C@@H](CC(=O)O)C(=O)N[C@@H](Cc2ccccc2)C(=O)O)cc1 [Example 9],0.35,–
"COC(=O)[C@H](Cc1ccccc1)NC(=O)[C@H](CC(=O)O)NC(=O)CCC(=O)Nc1ccc(C(=N)N)cc1 [Example 1, N-[N-[4-[[4-(aminoiminomethyl)phenyl]-amino]-1,4-dioxobutyl]-L-alpha-aspartyl]-L-phenylalanine, 1-methyl ester]",0.09,0.048
"N=C(N)c1ccc(NC(=O)CCC(=O)N[C@@H](CC(=O)O)C(=O)N[C@@H](Cc2ccccc2)C(=O)O)cc1 [Example 2, N-[N-[4-[[4-(aminoiminomethyl)phenyl]amino]-1,4-dioxobutyl]-L-alpha-aspartyl]-L-phenylalanine]",0.08,–
